Legend:
[1] = tested on: DIGSA; experiment: Pre-emergence herbicidal action against DIGSA; assay type: in vivo, Digitaria sanguinalis; settings: Digitaria sanguinalis, 504 h; for pest or weed control at 80 g/ha: dosage 80 g/ha; for pest or weed control at 320 g/ha: dosage 320 g/ha; for pest or weed control at 20 g/ha: dosage 20 g/ha
Outline: (§1)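 Pre-emergence soil-surface spray of formulated compound (WP or EC; 600 to 800 l/ha; 0.2% wetting agent) over seeds sown in sandy loam. After 3 weeks under greenhouse conditions, damage is estimated visually in percent against untreated plants.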

[2] = tested on: VIOTR; experiment: Pre-emergence herbicidal action against VIOTR; assay type: in vivo, Viola tricolor; settings: Viola tricolor, 504 h; for pest or weed control at 80 g/ha: dosage 80 g/ha; for pest or weed control at 320 g/ha: dosage 320 g/ha; for pest or weed control at 20 g/ha: dosage 20 g/ha
Outline: as §1

[3] = tested on: ECHCG; experiment: Pre-emergence herbicidal action against ECHCG; assay type: in vivo, Echinochloa crus-galli; settings: Echinochloa crus-galli, 504 h
Outline: as §1

[4] = tested on: AMARE; experiment: Post-emergence herbicidal action against AMARE; assay type: in vivo, Amaranthus retroflexus; settings: Amaranthus retroflexus, 504 h, visual assessment about 3 weeks after treatment, 100% = plants have died, 0% = like control plants
Outline: (§2)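 Greenhouse plants in sandy loam were sprayed at the one-leaf stage, 2 to 3 weeks after sowing, with WP or EC formulations as aqueous suspension or emulsion (600 to 800 l/ha water, 0.2% wetting agent). Visual damage was scored about 3 weeks later versus untreated controls, 0% = like control, 100% = dead.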

[5] = tested on: DIGSA; experiment: Post-emergence herbicidal action against DIGSA; assay type: in vivo, Digitaria sanguinalis; settings: Digitaria sanguinalis, 504 h
Outline: as §2

[6] = tested on: PHBPU; experiment: Pre-emergence herbicidal action against PHBPU; assay type: in vivo, Pharbitis purpurea; settings: Ipomoea purpurea, 504 h; for pest or weed control at 80 g/ha: dosage 80 g/ha; for pest or weed control at 320 g/ha: dosage 320 g/ha
Outline: as §1

[7] = tested on: LOLRI; experiment: Post-emergence herbicidal action against LOLRI; assay type: in vivo, Lolium rigidum; settings: Lolium rigidum, 504 h; for pest or weed control at 20 g/ha: dosage 20 g/ha; for pest or weed control at 80 g/ha: dosage 80 g/ha
Outline: as §2

[8] = tested on: harmful plants; experiment: Comparative experiments: herbicidal pre-emergence action versus compounds known from D1 (WO 2012/028579 A1); assay type: in vivo; set-up: key to Herbicidal action against ALOMY / Herbicidal action against AVEFA / Herbicidal action against SETVI / Herbicidal action against AMARE / Herbicidal action against STEME / Herbicidal action against VIOTR / Herbicidal action against HORMU / Herbicidal action against MATIN / Herbicidal action against ABUTH: % herbicidal activity: 0 = like control, 100 = plants died; settings: 80 g a.i./ha
From the text: (§3) Seeds of monocotyledonous and dicotyledonous weed plants and crop plants are laid out in sandy loam soil in wood-fiber pots and covered with soil. The compounds of the invention, formulated in the form of wettable powders (WP) or as emulsion concentrates (EC), are then applied to the surface of the covering soil in the form of an aqueous suspension or emulsion at a water application rate equivalent to 600 to 800 l/ha, with addition of 0.2% wetting agent. After the treatment, the pots are placed in a greenhouse and kept under good growth conditions for the trial plants. The damage to the test plants is scored visually after a test period of 3 weeks by comparison with untreated controls (herbicidal activity in percent (%): 100% activity=the plants have died, 0% activity=like control plants). […] The tables below illustrate, in an illustrative manner, the post-emergence herbicidal action of the compounds of the invention, the herbicidal activity being stated in percent. In the experiments that follow, herbicidal action of numerous inventive compounds and the structurally closest compounds known from D1 (WO 2012/028579 A1) were compared under the above-specified conditions by the pre-emergence and post-emergence method. The example numbers given in the tables relate to the compounds disclosed in the respective documents.

[9] = tested on: CYPES; experiment: Pre-emergence herbicidal action against CYPES; assay type: in vivo; settings: Cyperus esculentus, 504 h
From the text: as §3, with “percent.” for “percent. In the experiments that follow, herbicidal action of numerous inventive compounds and the structurally closest compounds known from D1 (WO 2012/028579 A1) were compared under the above-specified conditions by the pre-emergence and post-emergence method. The example numbers given in the tables relate to the compounds disclosed in the respective documents.”

[10] = scored visually after 3 weeks, 100% = plants have died, 0% = like control plants

| SMILES | pest or weed control at 80 g/ha [1] | pest or weed control at 320 g/ha [1] | pest or weed control at 80 g/ha [2] | pest or weed control at 320 g/ha [2] | pest or weed control at 80 g/ha [3] | pest or weed control at 320 g/ha [3] | pest or weed control at 20 g/ha [4] | pest or weed control at 80 g/ha [4] | pest or weed control at 20 g/ha [5] | pest or weed control at 80 g/ha [5] | pest or weed control at 20 g/ha [1] | pest or weed control at 20 g/ha [7] | pest or weed control at 80 g/ha [7] | also measured |
| --- | --- | --- | --- | --- | --- | --- | --- | --- | --- | --- | --- | --- | --- | --- |
| CNC(=O)c1c(C(F)(F)F)ccc(C(=O)Nc2nnnn2C)c1SC [Example 1-81] | 100% | 100% | 90% | 100% | 100% | 100% | 90% | 90% | 80% | 90% |  |  |  |  |
| CCc1c(C(=O)Nc2nnnn2C)ccc(C(F)(F)F)c1C(=O)NC1CC1 [Example 1-273] | 100% |  | 100% |  | 100% |  | 100% |  | 90% |  | 100% | 80% |  | pest or weed control at 20 g/ha [2]: 100%; pest or weed control at 80 g/ha [6]: 100%; pest or weed control at 20 g/ha [3]: 90%; pest or weed control at 5 g/ha [5]: 90% |
| CCn1nnnc1NC(=O)c1ccc(Cl)c(C(=O)NC2CC2)c1Cl [Example 2-173] | 100% |  | 100% |  | 100% |  | 100% |  | 80% |  | 100% |  |  | pest or weed control at 80 g/ha [6]: 90% |
| CCn1nnnc1NC(=O)c1ccc(C(F)(F)F)c(C(=O)NC2CC2)c1C [Example 2-27] | 100% |  | 100% |  | 100% |  | 100% |  | 100% |  | 100% | 80% |  | pest or weed control at 20 g/ha [2]: 100%; pest or weed control at 20 g/ha ([6]; dosage 20 g/ha): 80%; pest or weed control at 80 g/ha [6]: 90%; pest or weed control at 20 g/ha [3]: 90%; pest or weed control at 5 g/ha [5]: 100% |
| CNC(=O)c1c(C(F)F)ccc(C(=O)Nc2nnnn2C)c1Cl [Example 1-147] | 100% | 100% | 100% | 100% | 100% | 100% | 90% | 90% | 90% | 90% |  |  | 90% | Herbicidal action against ALOMY [8]: 90; Herbicidal action against AMARE ([8]; AMARE): 100; Herbicidal action against AVEFA [8]: 100; Herbicidal action against SETVI [8]: 100; Herbicidal action against STEME [8]: 100; Herbicidal action against VIOTR ([8]; VIOTR): 100 |
| CNC(=O)c1c(C(F)(F)F)ccc(C(=O)Nc2nnc(C)o2)c1Cl [Example 6-116] |  |  | 100% | 100% | 100% | 100% | 100% | 100% |  |  |  |  | 90% | pest or weed control at 320 g/ha [6]: 80%; pest or weed control at 20 g/ha ([9]; 20 g/ha, scored visually after 3 weeks, 100% = plants have died, 0% = like control plants): 100%; pest or weed control at 80 g/ha [9, 10]: 100%; pest or weed control at 320 g/ha [9]: 100% |
| CCNC(=O)c1c(C(F)F)ccc(C(=O)Nc2nnnn2CC)c1Cl [Example 2-148] | 100% | 100% | 100% | 100% | 100% | 100% | 90% | 90% | 90% | 90% |  |  | 80% |  |
| CCn1nnnc1NC(=O)c1ccc(C(F)F)c(C(=O)NC)c1Cl [Example 2-147] | 100% | 100% | 100% | 100% | 100% | 100% | 90% | 90% | 90% | 90% |  |  | 90% | Herbicidal action against ALOMY [8]: 90; Herbicidal action against AVEFA [8]: 100; Herbicidal action against HORMU ([8]; HORMU): 90; Herbicidal action against SETVI [8]: 100; Herbicidal action against STEME [8]: 70 |
| CCn1nnnc1NC(=O)c1ccc(C(F)(F)F)c(C(=O)NC)c1SC [Example 2-81] | 100% | 100% | 90% | 100% | 100% | 100% | 90% | 90% | 90% | 90% |  | 80% | 90% |  |
| CCn1nnnc1NC(=O)c1ccc(C(F)(F)F)c(C(=O)NC(C)=O)c1Cl [Example 2-337] | 100% | 100% | 100% | 100% | 100% | 100% | 100% | 100% |  | 90% | 90% |  |  | pest or weed control at 20 g/ha [2]: 90%; pest or weed control at 320 g/ha [6]: 90%; pest or weed control at 20 g/ha [3]: 80% |
| CCCn1nnnc1NC(=O)c1ccc(C(F)(F)F)c(C(N)=O)c1Cl [Example 3-338] |  |  | 90% | 100% |  | 100% | 90% | 100% |  |  |  |  |  | pest or weed control at 320 g/ha [6]: 100%; pest or weed control at 80 g/ha [9, 10]: 90%; pest or weed control at 320 g/ha [9]: 90% |
| CCNC(=O)c1c(C(F)F)ccc(C(=O)Nc2nnnn2C)c1Cl [Example 1-148] | 100% | 100% | 100% | 100% | 100% | 100% | 90% | 90% | 90% | 90% |  | 80% | 90% |  |
| CCNC(=O)c1c(C(F)(F)F)ccc(C(=O)Nc2nnnn2CC)c1SC [Example 2-82] | 100% | 100% | 100% | 100% | 100% | 100% | 90% | 90% | 90% | 90% |  |  | 90% |  |

From patent publication US12655116B2, “Substituted isophthalic acid diamides” (Bayer Aktiengesellschaft, priority 2020, dated 2026)
